Source: the NIST ThermoML archive (doi:10.1021/acs.jced.7b00060)
Values joined by “and” are separate entries in the source; they are usually repeats but may differ in a detail not shown here. Equal values may be shown once.

Assays:
[1] = refractive index (Na D-line) (dimensionless); settings: 101.33 kPa, Liquid, Standard Abbe refractometry
[2] = 101.33 kPa, Liquid; for electrical conductivity: Alternating current cell with electrodes; for viscosity: Falling or rolling sphere viscometry; for mass density: Vibrating tube method

CCCC[N+]1(C)CCCC1.N#CN=C=[N-] [1-butyl-1-methylpyrrolidinium dicyanamide]
Settings | electrical conductivity, [2] | mass density, [2] | refractive index, [1] | viscosity, [2]
238.15 K | 0.0337 S/m | – | – | –
248.15 K | 0.081 S/m and 0.102 S/m | – | – | –
258.15 K | 0.166 S/m and 0.2 S/m | – | – | –
268.15 K | 0.299 S/m and 0.352 S/m | – | – | –
278.15 K | 0.49 S/m and 0.566 S/m | 1029 kg/m3 and 1024.78 kg/m3 | – | 95.5 mPa·s and 80.15 mPa·s
288.15 K | 0.746 S/m and 0.844 S/m | 1023.24 kg/m3 and 1019.06 kg/m3 | 1.4862 | 61.23 mPa·s and 51.72 mPa·s
293.15 K | – | – | 1.4853 | –
298.15 K | 1.07 S/m and 1.19 S/m | 1017.56 kg/m3 and 1013.4 kg/m3 | 1.4847 | 41.78 mPa·s and 35.85 mPa·s
303.15 K | – | – | 1.4842 | –
308.15 K | 1.46 S/m and 1.61 S/m | 1011.95 kg/m3 and 1007.81 kg/m3 | 1.4836 | 29.99 mPa·s and 25.93 mPa·s
313.15 K | – | – | 1.4832 | –
318.15 K | 1.92 S/m and 2.08 S/m | 1006.4 kg/m3 and 1002.27 kg/m3 | 1.4826 | 21.44 mPa·s and 19.43 mPa·s
323.15 K | – | – | 1.4818 | –
328.15 K | 2.44 S/m and 2.63 S/m | 1000.91 kg/m3 and 996.796 kg/m3 | 1.481 | 16.47 mPa·s and 15 mPa·s
333.15 K | – | – | 1.48 | –
338.15 K | 3.02 S/m and 3.23 S/m | 995.474 kg/m3 and 991.368 kg/m3 | 1.479 | 13.08 mPa·s and 11.84 mPa·s
343.15 K | – | – | 1.4779 | –
348.15 K | 3.88 S/m | 985.987 kg/m3 | – | 10.57 mPa·s and 9.634 mPa·s
358.15 K | 4.58 S/m | 980.656 kg/m3 | – | 8.801 mPa·s and 8.017 mPa·s
368.15 K | 5.32 S/m | – | – | 7.467 mPa·s and 6.774 mPa·s
378.15 K | 6.11 S/m | – | – | 6.444 mPa·s and 5.761 mPa·s
388.15 K | 6.93 S/m | – | – | 5.605 mPa·s and 5.001 mPa·s
398.15 K | 7.78 S/m | – | – | 4.956 mPa·s and 4.386 mPa·s
408.15 K | 8.67 S/m | – | – | 3.905 mPa·s
418.15 K | 9.57 S/m | – | – | –
428.15 K | 10.5 S/m | – | – | –
438.15 K | 11.4 S/m | – | – | –
448.15 K | 12.3 S/m | – | – | –

CC[S+](C)CC.O=S(=O)([N-]S(=O)(=O)C(F)(F)F)C(F)(F)F [diethylmethylsulfonium bis[(trifluoromethyl)sulfonyl]imide]
Settings | electrical conductivity, [2] [S/m] | mass density, [2] [kg/m3] | refractive index, [1] | viscosity, [2] [mPa·s]
258.15 K | 0.0975 | – | – | –
268.15 K | 0.182 | – | – | –
278.15 K | 0.305 | 1520.53 | – | 98.6
283.15 K | – | – | 1.4276 | –
288.15 K | 0.473 | 1510.56 | 1.4262 | 61.05
293.15 K | – | – | 1.4247 | –
298.15 K | 0.688 | 1500.71 | 1.4233 | 40.71
303.15 K | – | – | 1.4219 | –
308.15 K | 0.95 | 1490.96 | 1.4204 | 28.55
313.15 K | – | – | 1.419 | –
318.15 K | 1.26 | 1481.3 | 1.4175 | 20.95
323.15 K | – | – | 1.4161 | –
328.15 K | 1.61 | 1471.73 | 1.4146 | 15.73
333.15 K | – | – | 1.4132 | –
338.15 K | 2 | 1462.25 | 1.4118 | 12.34
343.15 K | – | – | 1.4103 | –
348.15 K | 2.43 | – | – | 9.945
358.15 K | 2.88 | – | – | 8.183
368.15 K | 3.37 | – | – | 6.826
378.15 K | 3.89 | – | – | 5.793
388.15 K | 4.43 | – | – | 4.981
398.15 K | 4.99 | – | – | 4.331
418.15 K | 6.16 | – | – | –
438.15 K | 7.38 | – | – | –
458.15 K | 8.63 | – | – | –

CCCC[n+]1ccccc1.O=S(=O)([N-]S(=O)(=O)C(F)(F)F)C(F)(F)F [1-butylpyridinium bis[(trifluoromethyl)sulfonyl]imide]
Settings | electrical conductivity, [2] [S/m] | mass density, [2] [kg/m3] | refractive index, [1] | viscosity, [2] [mPa·s]
278.15 K | 0.119 | 1467.88 | – | 182.1
283.15 K | – | – | 1.4474 | –
288.15 K | 0.206 | 1458.26 | 1.4459 | 100.9
293.15 K | – | – | 1.4444 | –
298.15 K | 0.326 | 1448.74 | 1.4429 | 61.39
303.15 K | – | – | 1.4414 | –
308.15 K | 0.483 | 1439.32 | 1.4399 | 40.14
313.15 K | – | – | 1.4384 | –
318.15 K | 0.677 | 1430.02 | 1.4369 | 27.9
323.15 K | – | – | 1.4354 | –
328.15 K | 0.909 | 1420.8 | 1.4339 | 20.36
333.15 K | – | – | 1.4324 | –
338.15 K | 1.17 | 1411.66 | 1.4309 | 15.42
343.15 K | – | – | 1.4294 | –
348.15 K | 1.47 | 1402.6 | – | 12.04
358.15 K | 1.8 | 1393.63 | – | 9.663
368.15 K | 2.16 | – | – | 7.904
378.15 K | 2.54 | – | – | –
388.15 K | 2.94 | – | – | –
398.15 K | 3.37 | – | – | –
418.15 K | 4.27 | – | – | –
438.15 K | 5.24 | – | – | –

CC[S+](CC)CC.O=S(=O)([N-]S(=O)(=O)C(F)(F)F)C(F)(F)F [triethylsulfonium bis((trifluoromethyl)sulfonyl)imide]
Settings | electrical conductivity [S/m] | mass density [kg/m3] | refractive index | viscosity [mPa·s]
[1], 283.15 K | – | – | 1.4308 | –
[1], 288.15 K | – | – | 1.4293 | –
[1], 293.15 K | – | – | 1.4279 | –
[1], 298.15 K | – | – | 1.4264 | –
[1], 303.15 K | – | – | 1.4249 | –
[1], 308.15 K | – | – | 1.4234 | –
[1], 313.15 K | – | – | 1.4219 | –
[1], 318.15 K | – | – | 1.4204 | –
[1], 323.15 K | – | – | 1.419 | –
[1], 328.15 K | – | – | 1.4175 | –
[1], 333.15 K | – | – | 1.4161 | –
[1], 338.15 K | – | – | 1.4148 | –
[1], 343.15 K | – | – | 1.4134 | –
[2], 258.15 K | 0.0992 | – | – | –
[2], 268.15 K | 0.186 | – | – | –
[2], 278.15 K | 0.314 | 1479.69 | – | 80.5
[2], 288.15 K | 0.487 | 1469.86 | – | 49.88
[2], 298.15 K | 0.708 | 1460.14 | – | 33.36
[2], 308.15 K | 0.975 | 1450.51 | – | 23.5
[2], 318.15 K | 1.29 | 1440.97 | – | 17.34
[2], 328.15 K | 1.64 | 1431.52 | – | 13.26
[2], 338.15 K | 2.03 | 1422.15 | – | 10.44
[2], 348.15 K | 2.46 | – | – | 8.445
[2], 358.15 K | 2.91 | – | – | 6.963
[2], 368.15 K | 3.4 | – | – | 5.849
[2], 378.15 K | 3.92 | – | – | 4.99
[2], 388.15 K | 4.43 | – | – | 4.312
[2], 398.15 K | 5 | – | – | 3.768
[2], 408.15 K | 5.58 | – | – | –
[2], 418.15 K | 6.16 | – | – | –
[2], 428.15 K | 6.76 | – | – | –
[2], 438.15 K | 7.37 | – | – | –
[2], 448.15 K | 7.98 | – | – | –
[2], 458.15 K | 8.59 | – | – | –
[2], 468.15 K | 9.17 | – | – | –

CCCCCCCC[N+](C)(CCCCCCCC)CCCCCCCC.O=C([O-])C(F)(F)F [methyltrioctylammonium trifluoroacetate]
[2]
Settings | electrical conductivity [S/m] | mass density [kg/m3] | viscosity [mPa·s]
288.15 K | – | – | 3629
298.15 K | 0.00155 | 962.478 | 1551
303.15 K | – | 959.262 | –
308.15 K | 0.00329 | 956.054 | 735.2
313.15 K | – | 952.805 | –
318.15 K | 0.0063 | 949.626 | 380.8
323.15 K | – | 946.478 | –
328.15 K | 0.0112 | 943.335 | 212.1
333.15 K | – | 940.189 | –
338.15 K | 0.0185 | 937.046 | 126.7
343.15 K | – | 933.904 | –
348.15 K | 0.0293 | 930.772 | 79.97
353.15 K | – | 927.648 | –
358.15 K | 0.0444 | 924.529 | 53.33
363.15 K | – | 921.418 | –
368.15 K | 0.0647 | – | 36.92
378.15 K | 0.0924 | – | 26.69
388.15 K | 0.125 | – | 19.8
398.15 K | – | – | 15.03
